In general, viability, T/C refers to the ratio of treated to control. One may read the IC50 as the concentration that gives 50% inhibition.

Among the data in PubChem BioAssay AID1963422 (Molecular Pharmacology Branch, DTP, NCI, 2024) are viability, T/C and IC50 values, retold here.

Where “and” joins values, the source holds several entries; their conditions need not be identical. Equal values may be shown once. A value given as a limit tells only on which side of the number the result lay.

The assay has as its system 463943-066-T-J2-PDC complex spheroid growth. The assay can be described thus: Anticancer human tumor 463943-066-T-J2-PDC patient-derived colon adenocarcinoma cell line growth inhibition [Asc]. To be noted: for viability, T/C: stronger effect = lower value. The protocol:
Multicellular complex tumor spheroid response to apoptosis pathway targeting inhibitors Alrizomadlin, Pelcitoclax, and Dasminapant in combination with a variety of drugs and investigational agents in selected tumor cell lines
The MDM2 inhibitor alrizomadlin, the Bcl-2/Bcl-xL inhibitor pelcitoclax, and the IAPs inhibitor dasminapant were evaluated both individually and in combination with standard of care and investigational anticancer small molecules within a complex spheroid model of solid tumors. . Complex spheroids include a stromal component modeled by human endothelial cells (HUVEC) and fibroblasts modeled by human mesenchymal stem cells (MSCs). The concentration ranges selected for each drug and investigational agent were based upon clinically achievable concentrations if the clinical Cmax of the agent was known.
Compounds. The drugs and investigational agents: alrizomadlin (APG-115; NSC831270), pelcitoclax (APG-1252; NSC835773), dasminapant (APG-1387;NSC834197), TAK-243 (NSC785004), copanlisib (NSC809693), olaparib (NSC753686), talazoparib (NSC767125), cobimetinib (NSC 768068), eltanexor (KPT-8602, NSC 794443), abemaciclib (NSC 768073), sotorasib (NSC818433), adagrasib (NSC 831453), MRTX-1133 (NSC 836407), Iadademestat (ORY1001, NSC 806812), and RMC-4630 (NSC839698), were obtained from the NCI Developmental Therapeutics Program Chemical Repository. The FDA-approved anticancer drug set is available from the Developmental Therapeutics Program at https://dtp.cancer.gov/organization/dscb/obtaining/available plates.htm. […] The stock solutions were prepared in dimethyl sulfoxide (DMSO, Sigma-Aldrich, St. Louis, MO, cat. D2650) at 800-fold the tested concentration and stored at -70 degrees C prior to their use. All drugs and investigational agents were tested over a range starting from a high concentration at or near the clinical Cmax and decreasing in half-log increments. If the clinical Cmax for an agent had not been determined, the highest concentration tested was 10 microM.
The patient-derived cancer (PDC) cell lines include five colon adenocarcinomas: 186277-243-T-J2-PDC, 616215-338-R-J1-PDC, 439559-082-T-J2-PDC, 463943-066-T-J2-PDC, and 519858-162-T-J1-PDC; three pancreatic carcinomas: 323965-272-R-J2-PDC, 521955-158-R6-J3-PDC, and 521955-158-R2-J5-PDC; two uterine sarcomas: 327498-152-R-J2-PDC and 993429-296-R-J1-PDC; two rhabdomyosarcomas: 755483-174-R-J1-PDC and 772245-204-R-J1-PDC; two soft tissue sarcomas: 126254-015-R-J1-PDC and 494315-158-R-J1-PDC; two malignant fibrous histiocytomas: 317291-083-R-J1-PDC and 596521-263-R-J1-PDC; two breast carcinomas: 171881-019-R-J1-PDC and 885512-296-R-J2-PDC; and one ovarian carcinoma: 6556581-035-R-J-PDC were obtained from the NCI PDMR, (https://pdmr.cancer.gov). The established cell lines HSSY-2 synovial sarcoma (RRID:CVCL 8719), SYO-1 synovial sarcoma (RRID:CVCL_7146), MPNST malignant peripheral neural sheath tumor were obtained from the Sloan Kettering Institute. The following established cell lines were purchased from the American Type Culture Collection (ATCC, Manassas, VA), Sor the received from the NCI repository:, PANC-1 pancreatic carcinoma (CRL-1469, RRID:CVCL_0480), OVCAR-5 ovarian carcinoma (RRID:CVCL_1628), OVCAR-8 ovarian carcinoma (RRID:CVCL_1629), , MCF-7 breast carcinoma (CRL-12584, RRID:CVCL_0031), MDA-MB-231 breast carcinoma (CRL-12532, RRID:CVCL_0062), NCI-H1876 small cell lung carcinoma (CRL-5902, RRID:CVCL_1503), NCI-H510A small cell lung carcinoma (HTB-184, RRID:CVCL_1565), NCI-H1417 (CRL-5869, RRID:CVCL_1469), and NCI-H196 small cell lung carcinoma (CRL-5823, RRID:CVCL_1509). Dr. Peter Houghton (Greehey Children's Cancer Research Institute, University of Texas Health Science Center, San Antonio, TX) provided Rh-18 rhabdomyosarcoma (RRID:CVCL_1659). Pooled donor human umbilical vein endothelial cells (HUVEC, Lonza, cat. CC-2519) and human mesenchymal stem cells (hMSC, Lonza, cat. PT-2501) were purchased from Lonza (Walkersville, MD).
Cell Culture. […]

[1] abbreviates: compound alone, run of 11/07/2022.
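Also: compound exposure lasted 7 days.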
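For viability, T/C in this document: 100% = DMSO vehicle control wells.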

For `C#Cc1c(F)ccc2cc(O)cc(-c3ncc4c(N5CC6CCC(C5)N6)nc(OCC56CCCN5CC(F)C6)nc4c3F)c12` (stereo not given), the viability, T/C is 103% and 101% and 90.9% (compound 0.0316 µM); 88.8% and 94.5% and 88.5% (compound 0.1 µM); 100% and 104% and 103% (compound 0.316 µM); 109% and 104% and 115% (compound 1 µM); 105% and 100% (2×) (compound 3.16 µM); 96.9% and 95.9% and 104% (compound 10 µM). Besides, where the note is “curve of compound”, the IC50 is more than 10 µM.

Regarding `C=C(F)C(=O)N1CCN(c2nc(OCC3CCCN3C)nc3c2CCN(c2cccc4cccc(Cl)c24)C3)CC1CC#N` (stereo not given), the viability, T/C reads like this: (compound 0.0316 µM) 98.4% and 102%; (compound 0.1 µM) 102% and 94.9%; (compound 0.316 µM) 102%; (compound 1 µM) 109% and 106%; (compound 3.16 µM) 95.6%; (compound 10 µM) 18.6% and 29.3%. For the same molecule, for the setting “curve of compound”, the IC50 was 6.27 µM and 7 µM.

On to `C=CC(=O)N1CCN(c2nc(=O)n(-c3c(C)ccnc3C(C)C)c3nc(-c4c(O)cccc4F)c(F)cc23)C(C)C1` (stereo not given), for which the viability, T/C was 102% and 108% (compound 0.0316 µM); 90.1% and 88.6% (compound 0.1 µM); 93% and 101% (compound 0.316 µM); 100% and 110% (compound 1 µM); 102% and 104% (compound 3.16 µM); 93.7% and 107% (compound 10 µM). Besides, for the setting “curve of compound”, the IC50 is more than 10 µM.

In the case of `CCN1C(C(=O)NC23CCC(C(=O)O)(CC2)CC3)C(c2cccc(Cl)c2F)C2(C(=O)Nc3cc(Cl)ccc32)C12CCCCC2` (stereo not given), the viability, T/C (compound 0.00949 µM) is 98.6% [middle of 8 runs]; the viability, T/C (compound 0.03 µM) is 96.1% [middle of 8 runs]; the viability, T/C (compound 0.0949 µM) is 88.7% [middle of 8 runs]; the viability, T/C (compound 0.3 µM) is 82.9% [middle of 8 runs]; the viability, T/C (compound 0.949 µM) was 76.8% [middle of 8 runs]; the viability, T/C (compound 3 µM) was 77.5% [middle of 8 runs]. Besides, the IC50 is more than 3 µM under setting [1] and more than 3 µM (curve of compound).

On to `CCN1CCN(Cc2ccc(Nc3ncc(F)c(-c4cc(F)c5nc(C)n(C(C)C)c5c4)n3)nc2)CC1`, for which the viability, T/C by setting is: (compound 0.00316 µM) 102% and 101% and 107%; (compound 0.01 µM) 99.4% and 93.9% and 78.5%; (compound 0.0316 µM) 100% and 108% and 97.6%; (compound 0.1 µM) 98.9% and 96% and 104%; (compound 0.316 µM) 113% and 108% and 115%; (compound 1 µM) 119% and 120% and 125%. Moreover, the IC50 (curve of compound) is more than 1 µM.

Regarding `CNC(C)C(=O)NC1CN(S(=O)(=O)c2cccc(S(=O)(=O)N3CCC4CCC(C(=O)NC(c5ccccc5)c5ccccc5)N4C(=O)C(NC(=O)C(C)NC)C3)c2)CCC2CCC(C(=O)NC(c3ccccc3)c3ccccc3)N2C1=O` (stereo not given), the viability, T/C was 99.1% [middle of 6 runs] (compound 0.00316 µM); 94.9% [middle of 6 runs] (compound 0.01 µM); 100% [middle of 6 runs] (compound 0.0316 µM); 99.2% [middle of 6 runs] (compound 0.1 µM); 96.8% [middle of 6 runs] (compound 0.316 µM); 92.2% [middle of 6 runs] (compound 1 µM). Also, the IC50 reads like this: (compound alone, run of 11/15/2022) more than 1 µM; (curve of compound) more than 1 µM.

Consider `COc1c(OCCCN2CCOCC2)ccc2c3n(c(=NC(=O)c4cnc(N)nc4)nc12)CCN3`, for which the viability, T/C runs as follows: (compound 0.00316 µM) 94.5% and 96.1%; (compound 0.01 µM) 90.6% and 82%; (compound 0.0316 µM) 77.9% and 77.5%; (compound 0.1 µM) 65.9% and 65.1%; (compound 0.316 µM) 59% and 58.9%; (compound 1 µM) 41.5% and 44.9%. Where the note is “curve of compound”, the IC50 is 0.524 µM and 0.659 µM.

In the case of `Cc1c(S(C)(=O)=O)c(-c2cc(F)cc(N3CCN(c4ccc(NS(=O)(=O)c5ccc(NC(CCN6CCC(C(=O)OCCCP(=O)(O)O)CC6)CSc6ccccc6)c(S(=O)(=O)C(F)(F)F)c5)cc4)CC3)c2)c(-c2ccc(Cl)cc2)n1C(C)C` (stereo not given), the viability, T/C is 96.2% [middle of 7 runs] (compound 0.0316 µM); 94.8% [middle of 7 runs] (compound 0.1 µM); 87.8% [middle of 7 runs] (compound 0.316 µM); 78% [middle of 7 runs] (compound 1 µM); 62.6% [middle of 7 runs] (compound 3.16 µM); 56.5% [middle of 7 runs] (compound 10 µM). In addition, the IC50 under setting [1] is more than 10 µM.

As for `Cc1nc(N2CCC3(CC2)COC(C)C3N)c(CO)nc1Sc1ccnc(N)c1Cl` (stereo not given), the viability, T/C is 97.7% and 107% (2×) (compound 0.00949 µM); 88.5% and 90.2% and 90.5% (compound 0.03 µM); 86.5% and 88.5% and 79.4% (compound 0.0949 µM); 87.4% and 87% and 82% (compound 0.3 µM); 87% and 81.9% and 80.6% (compound 0.949 µM); 70.8% (2×) and 71.8% (compound 3 µM). Under “curve of compound”, the IC50 is more than 3 µM.

Regarding `Cn1ncnc1[C@H]1c2n[nH]c(=O)c3cc(F)cc(c23)N[C@@H]1c1ccc(F)cc1`, the viability, T/C (compound 0.000316 µM) was 98.9% and 88% and 106%; the viability, T/C (compound 0.001 µM) was 91.2% and 98.6% and 99.5%; the viability, T/C (compound 0.00316 µM) is 103% and 107% and 104%; the viability, T/C (compound 0.01 µM) was 96.4% and 102% (2×); the viability, T/C (compound 0.0316 µM) was 102% and 103% (2×); the viability, T/C (compound 0.1 µM) was 99.3% and 97.9% and 94%. Under “curve of compound”, the IC50 is more than 0.1 µM.

Consider `NC(=O)C(=Cn1cnc(-c2cc(C(F)(F)F)cc(C(F)(F)F)c2)n1)c1cncnc1`, for which the viability, T/C is 96.5% and 87.3% and 115% (compound 0.000949 µM); 84.7% and 83.7% and 102% (compound 0.003 µM); 92.6% and 85.6% and 96.3% (compound 0.00949 µM); 87.8% and 84.8% and 87.7% (compound 0.03 µM); 83.6% and 81.3% and 79.4% (compound 0.0949 µM); 73.8% and 73.3% and 60.4% (compound 0.3 µM). The IC50 (curve of compound) was more than 0.3 µM.

On to `NC1CCC(NC2CC2c2ccccc2)CC1` (stereo not given), for which the viability, T/C was 89.8% and 86.8% (compound 0.000316 µM); 94.3% and 87.5% (compound 0.001 µM); 87.3% and 94.4% (compound 0.00316 µM); 92.6% and 95.7% (compound 0.01 µM); 94.2% and 88.1% (compound 0.0316 µM); 86.1% and 94.9% (compound 0.1 µM). For the setting “curve of compound”, the IC50 was more than 0.1 µM.

With `O=C(c1cc(Cc2n[nH]c(=O)c3ccccc23)ccc1F)N1CCN(C(=O)C2CC2)CC1`, the viability, T/C (compound 0.0316 µM) was 98.1% and 99.9% and 93.3%; the viability, T/C (compound 0.1 µM) is 98.8% and 91.9% and 78.9%; the viability, T/C (compound 0.316 µM) is 99.5% and 98.5% and 103%; the viability, T/C (compound 1 µM) was 96.7% and 97.9% and 108%; the viability, T/C (compound 3.16 µM) is 103% and 97.2% and 92.4%; the viability, T/C (compound 10 µM) is 92.1% and 91.5% and 97.2%. The IC50 (curve of compound) was more than 10 µM.

For the molecule `O=C(c1ccc(F)c(F)c1Nc1ccc(I)cc1F)N1CC(O)([C@@H]2CCCCN2)C1`, the viability, T/C was 88.3% and 95.1% and 104% (compound 0.00316 µM); 79.2% and 78% (2×) (compound 0.01 µM); 71.1% and 60.7% and 77.5% (compound 0.0316 µM); 57.1% and 58.9% and 75.6% (compound 0.1 µM); 39.7% and 42% and 51.9% (compound 0.316 µM); 29% and 29.9% and 35.8% (compound 1 µM). The IC50 (curve of compound) was 0.159 µM and 0.14 µM and 0.397 µM.
